# In PMC8430952 (International Journal of Molecular Sciences, 2021):
# Where a chain is given by its changes, count along the chain named. No end group written: not given here.
# T1: ATAD2 bromodomain (BRD), residues 981–1108 (Homo sapiens, UniProt Q6PL18)
# T1 construct: Residues 981–1108 encoding the 128 amino acid ATAD2 BRD were PCR amplified; GST (with PreScission Protease site) (N, cleaved yes); made in house; host or cells: E. coli Rosetta 2(DE3) pLysS (non-codon-optimized) or BL21(DE3) pLysS (codon-optimized)
# T1 sequence (Q6PL18 981-1108): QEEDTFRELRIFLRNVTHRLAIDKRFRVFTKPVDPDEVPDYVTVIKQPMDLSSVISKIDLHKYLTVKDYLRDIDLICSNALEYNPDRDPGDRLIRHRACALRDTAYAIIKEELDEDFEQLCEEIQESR
# T2: ATAD2 BRD mutant N1064A (Homo sapiens, UniProt Q6PL18, N1064A)
# T2 construct: ATAD2 (residues 981–1108) with a N1064A/I1074A/I1074Y mutation; GST (with PreScission Protease site) (N, cleaved yes); made in house; host or cells: E. coli
# T2 sequence (Q6PL18 981-1108 N1064A): T1 sequence (Q6PL18 981-1108) with N84A
# T3: ATAD2 BRD mutant I1074A (Homo sapiens, UniProt Q6PL18, I1074A)
# T3 construct: ATAD2 (residues 981–1108) with a N1064A/I1074A/I1074Y mutation; GST (with PreScission Protease site) (N, cleaved yes); made in house; host or cells: E. coli
# T3 sequence (Q6PL18 981-1108 I1074A): T1 sequence (Q6PL18 981-1108) with I94A
# T4: ATAD2 BRD mutant I1074Y (Homo sapiens, UniProt Q6PL18, I1074Y)
# T4 construct: ATAD2 (residues 981–1108) with a N1064A/I1074A/I1074Y mutation; GST (with PreScission Protease site) (N, cleaved yes); made in house; host or cells: E. coli
# T4 sequence (Q6PL18 981-1108 I1074Y): T1 sequence (Q6PL18 981-1108) with I94Y
# T5: ATAD2 bromodomain (residues 966–1112, C1101A) (Homo sapiens, UniProt Q6PL18, C1101A)
# T5 construct: GST (with PreScission protease cleavage site) (N, cleaved yes); made in house; host or cells: E. coli BL21(DE3) pLysS
# T5 sequence (Q6PL18 966-1112 C1101A): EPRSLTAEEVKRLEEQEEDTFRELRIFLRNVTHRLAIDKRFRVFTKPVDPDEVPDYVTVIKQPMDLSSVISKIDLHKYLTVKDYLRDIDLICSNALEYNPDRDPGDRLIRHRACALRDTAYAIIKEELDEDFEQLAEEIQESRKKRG
# T6: histone H4K5acK8ac 1-10 (Homo sapiens, UniProt P62805)
# T6 chain: MSGRGK(Ac)GGK(Ac)G
# T7: histone H4K12ac 4-17 (Homo sapiens, UniProt P62805)
# T7 chain: RGKGGKGLGK(Ac)GGAK
# B1: ATAD2 bromodomain (protein)
# chain: RLEEQEEDTFRELRIFLRNVTHRLAIDKRFRVFTKPVDPDEVPDYVTVIKQPMDLSSVISKIDLHKYLTVKDYLRDIDLICSNALEYNPDRDPGDRLIRHRACALRDTAYAIIKEELDE
# Experiments:
# [1] = target: T1, ATAD2 bromodomain (BRD), residues 981–1108; assay: ITC of histone peptides with the wild-type ATAD2 bromodomain; type: binding; settings: for N-Value (stoichiometry of binding, peptide-to-bromodomain ratio) / ATAD2 BRD KD: ITC, 5 °C; for N-Value (stoichiometry of binding, peptide-to-bromodomain ratio): ATAD2 BRD (residues 981–1108, wild type), one set of sites model; for Kd: SD; for ATAD2 BRD KD: 150 mM NaH2PO4 and 150 mM NaCl, 5 mM peptide titrated into 0.2 mM ATAD2 BRD (residues 981–1108, wild type), 1:1 binding model, mean ± SD of three runs, no binding repeated in duplicate
# Experimental: (§1) Purified protein was concentrated to a volume of 3 mL and dialyzed into ITC buffer (150 mM NaH2PO4 and 150 mM NaCl) for 48 h. ITC experiments with histone peptides were carried out at 5 °C using a MicroCal iTC200 (Malvern Panalytical, Westborough, MA, USA). […] The stirring speed was set at 750 RPM. After excluding the first injection, the ITC binding isotherms were integrated using a Marquandt nonlinear least-squares analysis according to a 1:1 binding model assuming a single set of identical binding sites with the Origin 7.0 program (OrginLab Corporation, Northampton, MA, USA). The raw data were corrected for non-specific heats of dilution determined by the magnitude of the peaks appearing after the system reaches complete saturation. The obtained heats of dilution were analyzed according to a one set of sites binding model and used to calculate binding affinities, N values, and thermodynamic values. […] The mean Kd was calculated from the average of the three runs, and the standard deviation was calculated from the mean.
# ATAD2 BRD mutant N1064A = target: T2, ATAD2 BRD mutant N1064A; assay: ITC of histone peptides with the ATAD2 bromodomain mutant N1064A; type: binding; settings: ATAD2 (residues 981–1108) N1064A mutant bromodomain
# Experimental: as §1
# ATAD2 BRD mutant I1074A = target: T3, ATAD2 BRD mutant I1074A; assay: ITC of histone peptides with the ATAD2 bromodomain mutant I1074A; type: binding; settings: ATAD2 (residues 981–1108) I1074A mutant bromodomain
# Experimental: as §1
# ATAD2 BRD mutant I1074Y = target: T4, ATAD2 BRD mutant I1074Y; assay: ITC of histone peptides with the ATAD2 bromodomain mutant I1074Y; type: binding; settings: ATAD2 (residues 981–1108) I1074Y mutant bromodomain
# Experimental: as §1
# [2] = target: histone H4K5ac (Homo sapiens) (UniProt P62805); assay: ITC; settings: cited from earlier work
# [3] = target: histone H4K8ac (Homo sapiens) (UniProt P62805); assay: ITC; settings: cited from earlier work
# [4] = target: T5, ATAD2 bromodomain (residues 966–1112, C1101A); assay: ITC of histone H4 peptides with the longer ATAD2 bromodomain construct; type: binding; settings: for N-Value (stoichiometry of binding): ITC, 5 °C, ATAD2 bromodomain residues 966–1112, C1101A; for Kd: SD, read-out: KD from ITC
# Experimental: as §1
# histone H4K5acK8ac 1-10 = target: T6, histone H4K5acK8ac 1-10; assay: ITC
# histone H4K12ac 4-17 = target: T7, histone H4K12ac 4-17; assay: ITC
Molecule,"N-Value (stoichiometry of binding, peptide-to-bromodomain ratio) [1]",Kd [1],ATAD2 BRD KD [1],further results
CC(=O)NCCCC[C@H](NC(=O)CNC(=O)CN)C(=O)NCC(=O)N[C@@H](CC(C)C)C(=O)NCC(=O)N[C@@H](CCCCNC(C)=O)C(=O)NCC(=O)NCC(=O)N[C@@H](C)C(N)=O [H4K8acK12ac (res 6–15)],1.169,392 ± 19.5 µM,,
CC(=O)NCCCC[C@H](NC(=O)CNC(=O)[C@H](CC(C)C)NC(=O)CNC(=O)[C@H](CCCCN)NC(=O)CNC(=O)CNC(=O)[C@H](CCCCN)NC(=O)CN)C(=O)NCC(=O)NCC(=O)N[C@@H](C)C(=O)N[C@@H](CCCCN)C(=O)N[C@@H](CCCNC(=N)N)C(N)=O [H4K12ac (res 4–17)],1.170,95.1 ± 13.1 µM,,KD (ATAD2 BRD mutant N1064A): No binding; KD (ATAD2 BRD mutant I1074A): No binding; KD (ATAD2 BRD mutant I1074Y): No binding
"ARTKQTARKSTG [H3 unmodified (res 1–12), unmodified histone H3 tail peptide, residues 1–12]",,,No Binding,
"ARTKQTARKacSTG [H3K9ac (res 1–12), histone H3 tail peptide, residues 1–12, acetylated at K9]",,,No Binding,
ATAD2 bromodomain (from UniProt Q6PL18),,,,Kd [2]: 44.5 µM; Kd [3]: 1130 µM
"GKGGKGLGKGGAKR [H4 unmodified (res 4–17), unmodified histone H4 tail peptide, residues 4–17; free N-terminus, amidated C-terminus]",,,No Binding,
"GKGGKacGLGKGGAKR [H4K8ac (res 4–17), histone H4 tail peptide, residues 4–17, acetylated at K8]",,,No Binding,ATAD2 BRD KD ([1]; listed as H5K8ac (4–17)): complete lack of binding
"GKacGGKGLGKGGAKR [H4K5ac (res 4–17), histone H4 tail peptide, residues 4–17, acetylated at K5]",,,No Binding,ATAD2 BRD KD ([1]; listed as H4K5ac (4–17)): complete lack of binding
LGK(Ac)GGAK(Ac)RHRK-NH2 [H4K12acK16ac (res 10–20)],1.082,303 ± 18.7 µM,,
"LGKGGAKacRHRK [H4K16ac (res 10–20), histone H4 tail peptide, residues 10–20, acetylated at K16]",,,No Binding,
"RKSTGGKAPRKacQ [H3K18ac (res 8–19), histone H3 tail peptide, residues 8–19, acetylated at K18]",,,No Binding,
"RKSTGGKacAPRKQ [H3K14ac (res 8–19), histone H3 tail peptide, residues 8–19, acetylated at K14]",,,No Binding,ATAD2 BRD KD ([1]; listed as H3K14ac): did not observe any binding
SGRGK(Ac)GGK(Ac)GL-NH2 [H4K5acK8ac (res 1–10)],0.938,33.2 ± 5.9 µM,,N-Value (stoichiometry of binding) [4]: 0.974; Kd [4]: 15.9 ± 2.5 µM; KD (ATAD2 BRD mutant N1064A): No binding; KD (ATAD2 BRD mutant I1074A): No binding; KD (ATAD2 BRD mutant I1074Y): No binding
SGRGK(Ac)GGKGL-NH2 [H4K5ac (res 1–10)],1.070,44.5 ± 3.3 µM,,N-Value (stoichiometry of binding) [4]: 1.021; Kd [4]: 10.1 ± 1.3 µM
SGRGK(Ac)QGGKARA-NH2 [H2AK5ac (res 1–12)],0.997,38.9 ± 5.9 µM,,
SGRGKGGK(Ac)GL-NH2 [H4K8ac (res 1–10)],1.144,1130 ± 122 µM,,
B1,,,,Kd (histone H4K5acK8ac 1-10): 33.2 µM; Kd (histone H4K12ac 4-17): 95.1 µM
